Experimental data from BigSolDB 2.1.

N#CN=C(N)N
solubility (mole fraction) (in DMF, 283.15 K): 0.239 | solubility (mole fraction) (in DMF, 288.15 K): 0.248 | solubility (mole fraction) (in DMF, 293.15 K): 0.258 | solubility (mole fraction) (in DMF, 298.15 K): 0.259 | solubility (mole fraction) (in DMF, 303.15 K): 0.262 | solubility (mole fraction) (in DMF, 308.15 K): 0.265 | solubility (mole fraction) (in DMF, 313.15 K): 0.274 | solubility (mole fraction) (in DMF, 318.15 K): 0.276 | solubility (mole fraction) (in DMF, 323.15 K): 0.284 | solubility (mole fraction) (in water, 283.15 K): 0.00474 | solubility (mole fraction) (in water, 288.15 K): 0.00594 | solubility (mole fraction) (in water, 293.15 K): 0.00693 | solubility (mole fraction) (in water, 298.15 K): 0.00897 | solubility (mole fraction) (in water, 303.15 K): 0.0106 | solubility (mole fraction) (in water, 308.15 K): 0.0134 | solubility (mole fraction) (in water, 313.15 K): 0.0173 | solubility (mole fraction) (in water, 318.15 K): 0.021 | solubility (mole fraction) (in water, 323.15 K): 0.0244
